# Test results reported in publication PMC6776562, “Inhibition of Rac1-dependent forgetting alleviates memory deficits in animal models of Alzheimer’s disease” (Protein & Cell, 2019).
# Target: Rac1 (Mus musculus, UniProt P63001)
# Experiment: Rac1 activity (Rac1-GTP/total Rac1) in hippocampal tissue by PAK-PBD pull-down and Western blot after drug administration
# Assay type: in vivo, APP/PS1 mice
# Conditions: APP/PS1 mice (eight-month-old); oral CS7171 50 mg/kg, CS7170 50 mg/kg, JKF-034 40 mg/kg once per day
# Experimental: We first assayed Rac1 activity in hippocampal tissues from AD patients and healthy age-matched, non-demented controls (Detailed information is provided in Table 1). The levels of the guanosine triphosphate (GTP)-bound active form of Rac1 were measured using the p21-binding domain (PBD) pull-down assay. The GTP-bound active form of Rac1 was pulled down through the interactive p21-activated kinase (PAK) fragment using PAK-PBD beads and measured using a Western blot assay (Fig. 1A), as described in previous studies (Shuai et al., [2010]; Liu et al., [2016]) from our laboratory and studies conducted by other research groups (Sander et al., [1998]; Barnes et al., [2008]). The total amount of Rac1 and actin were also evaluated using the Western blot analyses (See MATERIALS AND METHODS). […] Since there were no significant differences in total Rac1 levels between the experimental and control groups (See representative Western blot in all relevant figures), the ratio of Rac1-GTP to total Rac1 was taken as a measure of Rac1 activity. […] Consistent with this observation, Rac1 activity was also elevated in the hippocampus of APP/PS1 mice at different age (Fig. 1D). […] This increase was more pronounced in older flies (Fig. S1F).
# Mice were treated with EHop-016 (10 mg/kg), CS7170 (50 mg/kg), CS7171 (50 mg/kg), and JKF-034 (40 mg/kg). These drugs were dissolved in saline (0.9% NaCl) containing 0.5% Tween-80 (Sigma P4780). Each mouse received 200 μL of the solution by intragastric administration once per day (administered at 9:00 am). The drug administration was started seven days before the beginning of the Morris water maze (MWM) task and was continued until the end of the assay. All control groups were fed with vehicle solution.
# The hippocampal tissues from human subjects and mice were harvested and stored in a liquid nitrogen tank for biochemical assay. The tissues were homogenized in cold lysis buffer (Merck-Millipore, 20-168). The insoluble debris were removed after centrifugation at 13,000 rpm (for 10 min, at 4 °C). For GTP-bound Rac/Cdc42, lysates were incubated with GST-tagged PAK (p21-activated kinase)-PBD agarose beads (Cytoskeleton, PAK02) overnight at 4 °C. On the second day, the beads were washed three times with lysis buffer before subjecting them to SDS-PAGE (15%) and transferring them onto nitrocellulose membranes (Millipore, HATF00010). The membranes were incubated with primary antibodies (for Rac1: BD Transduction Laboratories, #610650, 1:2,000 dilution; for Cdc42, Santa Cruz Biotechnology, lot No. sc-8401, 1:500 dilution) overnight at 4 °C and with HRP-conjugated goat anti-mouse IgG (Cell Signaling Technology, #7076) for 1 h at room temperature. Intensities of the detected bands were analyzed using ImageJ software (National Institutes of Health). The total amount of Rac1 in the lysate was detected using a routine Western blot procedure. RhoA-GTP levels were measured by using the Rho-GTP monoclonal antibody (New East, lot No. 26904, Dilution: 1:1,000). Information regarding the other antibodies used is as follows: anti-RhoA (67B9), Cell Signaling, lot No. #2117, dilution: 1:1,000; anti-Actin, Clone C4, Millipore, lot No. #3018859, dilution: 1:2,000; anti-Amyloid 1-42 6E10, BioLegend, lot No. 803001, dilution: 1:1,000; anti-Phospho-PAK1 (Ser144)/PAK2 (Ser141), Cell Signaling, lot No. #2606, dilution: 1:1,000.
structure (smiles),measurement,value
O=C1NN(c2ccc(Cl)c(Cl)c2)C(=O)C1=Cc1ccc(O)c(N(O)O)c1 [CS7171],hippocampal Rac1 activity (Rac1-GTP/total Rac1),inhibited hippocampal Rac1 activity
O=S(=O)(c1ccccc1)N1CCN(Cc2ccccc2)CC1 [JKF-034],hippocampal Rac1 activity (Rac1-GTP/total Rac1),inhibited Rac1 activity
